Laboratory results published in patent US11684591B2, “Use of a GABAA receptor allosteric enhancer in medicine” (XI'AN LIBANG ZHAOXIN BIOTECHNOLOGY CO., LTD., priority 2018, dated 2023).

Tests used:
[1] = Distribution in brain tissues after intravenous administration in rats (LC-MS/MS); assay type: in vivo, SD rats
Description: 1. Comparative Test of the Distribution in Brain Tissues of Compound 1 and Dipropofol (3,3′, 5,5′-Tetraisopropyl-4,4′-Biphenol) after Intravenous Administration in Rats
72 SD rats, weighing 200 to 220 g, were randomly divided into 12 groups (6 per time group), and fasted for 12 h before administration. A dose of 45 mg/kg was intravenously administered with Compound 1 or the dipropofol respectively, and the rates were sacrificed at 5 min, 15 min, 30 min, 1 h, 2 h and 4 h after the administration. The brain tissues were removed immediately, rinsed with ice-cold distilled water, blotted dry, and frozen at −40° C. for storage. The concentration of Compound 1 or the dipropofol in the brain tissues at different points in time after administration in rats was measured by LC-MS/MS, as shown in Table 1 and FIG. 1.

[2] = tested on: PTZ-induced tonic-clonic seizures; assay: Antiepileptic test in rats with PTZ-induced seizures; assay type: in vivo, male SD rats; set-up: key to Seizure Intensity (total score of 7 animals): summed score: grade V = 5, IV = 4, III = 3, below III = 0; details: 45 mg/kg i.v.; for Number of episodes (animals), grade III / Number of episodes (animals), grade IV / Number of episodes (animals), grade V / Seizure Intensity (total score of 7 animals): n = 7
Description: 3. Antiepileptic Test of Compounds 1 and Dipropofol (3,3′, 5,5′-Tetraisopropyl-4,4′-Biphenol) in Rats with PTZ-Induced Seizures
In this test, male SD rats (Xi'an Jiaotong University), weighing 200 to 250 g, were used and intravenously administrated with 45 mg/kg of a Dipropofol injection, a Compound 1 injection, and blank solvent of the same volume. 1, 3, 5, 10, 15, 30, 60, 90 mins, and 120 mins after the intravenous administration, 70 mg/kg of PTZ was intraperitoneally injected in the rats to induce tonic-clonic seizures. 7 rats were used for each time point in each drug group. Rat seizure intensity was recorded in accordance with the Racine grading criteria in grade III to V seizure status. Scores were recorded according to the seizure intensity: 5 points for grade V, 4 points for grade IV, 3 points for grade III, and 0 point for below grade III.

[3] = tested on: GABAA, Chloride Channel, TBPS; assay: [35S]TBPS radioligand receptor competitive binding test; set-up: species or system rats; details: [35S]TBPS competitive binding
Description: 2. In Vitro GABAA Receptor Target Affinity Test
A radioligand ([^35S] TBPS) receptor competitive binding test was used to evaluate the affinity of the test compound (10 uM) with GABAA receptors.

[4] = PTZ 70 mg/kg i.p. 1 min after administration
[5] = PTZ 70 mg/kg i.p. 3 min after administration
[6] = PTZ 70 mg/kg i.p. 5 min after administration
[7] = PTZ 70 mg/kg i.p. 10 min after administration
[8] = PTZ 70 mg/kg i.p. 15 min after administration
[9] = PTZ 70 mg/kg i.p. 30 min after administration
[10] = PTZ 70 mg/kg i.p. 60 min after administration
[11] = PTZ 70 mg/kg i.p. 90 min after administration
[12] = PTZ 70 mg/kg i.p. 120 min after administration

AUC0-4h in the brain tissues relative to that of the dipropofol ([1]; 45 mg/kg i.v.): about 1.31 times
Time at which concentration peaked in the brain tissues ([1]; 45 mg/kg i.v.): 15 min
Concentration in the brain tissues relative to that of the dipropofol ([1]; 45 mg/kg i.v., 5 min after administration): 2.75 times
concentration at 5 min ([1]; SD, rat, brain, iv, 45 mg/kg i.v., 5 min after administration, average, read-out: Drug concentration in brain tissues): 35200 ng/g
concentration at 15 min ([1]; SD, rat, brain, iv, 45 mg/kg i.v., 15 min after administration, average, read-out: Drug concentration in brain tissues): 42700 ng/g
concentration at 30 min ([1]; SD, rat, brain, iv, 45 mg/kg i.v., 30 min after administration, average, read-out: Drug concentration in brain tissues): 39800 ng/g
concentration at 1 h ([1]; SD, rat, brain, iv, 45 mg/kg i.v., 1 h after administration, average, read-out: Drug concentration in brain tissues): 32000 ng/g
concentration at 2 h ([1]; SD, rat, brain, iv, 45 mg/kg i.v., 2 h after administration, average, read-out: Drug concentration in brain tissues): 22700 ng/g
concentration at 4 h ([1]; SD, rat, brain, iv, 45 mg/kg i.v., 4 h after administration, average, read-out: Drug concentration in brain tissues): 7750 ng/g
IC50 ([3]; rats, test concentration 30, 10, 3, 1, 0.3 uM): 2930 nM
SMILES: CCCc1cc(-c2cc(CCC)c(O)c(C(C)C)c2)cc(C(C)C)c1O [Compound 1, 4,4′-dihydroxy-3,3′-diisopropyl-5,5′-dipropylbiphenyl]
Brain entry rate and brain intake amount compared with dipropofol ([1]; same i.v. dose): significantly higher brain entry rate and brain intake amount than the dipropofol
Number of episodes (animals), grade III [2, 4]: 2
Number of episodes (animals), grade IV [2, 4]: 2
Number of episodes (animals), grade V [2, 4]: 0
Seizure Intensity (total score of 7 animals) [2, 4]: 14
Number of episodes (animals), grade III [2, 5]: 0
Number of episodes (animals), grade IV [2, 5]: 0
Number of episodes (animals), grade V [2, 5]: 0
Seizure Intensity (total score of 7 animals) [2, 5]: 0
Number of episodes (animals), grade III [2, 6]: 0
Number of episodes (animals), grade IV [2, 6]: 0
Number of episodes (animals), grade V [2, 6]: 0
Seizure Intensity (total score of 7 animals) [2, 6]: 0
Number of episodes (animals), grade III [2, 7]: 0
Number of episodes (animals), grade IV [2, 7]: 0
Number of episodes (animals), grade V [2, 7]: 0
Seizure Intensity (total score of 7 animals) [2, 7]: 0
Number of episodes (animals), grade III [2, 8]: 0
Number of episodes (animals), grade IV [2, 8]: 0
Number of episodes (animals), grade V [2, 8]: 0
Seizure Intensity (total score of 7 animals) [2, 8]: 0
Number of episodes (animals), grade III [2, 9]: 0
Number of episodes (animals), grade IV [2, 9]: 0
Number of episodes (animals), grade V [2, 9]: 0
Seizure Intensity (total score of 7 animals) [2, 9]: 0
Number of episodes (animals), grade III [2, 10]: 0
Number of episodes (animals), grade IV [2, 10]: 0
Number of episodes (animals), grade V [2, 10]: 0
Seizure Intensity (total score of 7 animals) [2, 10]: 0
Number of episodes (animals), grade III [2, 11]: 0
Number of episodes (animals), grade IV [2, 11]: 0
Number of episodes (animals), grade V [2, 11]: 0
Seizure Intensity (total score of 7 animals) [2, 11]: 0
Number of episodes (animals), grade III [2, 12]: 0
Number of episodes (animals), grade IV [2, 12]: 0
Number of episodes (animals), grade V [2, 12]: 0
Seizure Intensity (total score of 7 animals) [2, 12]: 0
Time after administration for which the potency can be maintained ([2]; rats): ≥ 120 min
Affinity for the GABAA receptors (in words) [3]: high affinity for the GABAA receptors, which affinity is comparable to that of the dipropofol
